From ChEMBL document CHEMBL5727979, “Thiazolidinedione derivative and use thereof” (2020)

target: T1, 15-hydroxyprostaglandin dehydrogenase [NAD(+)] (Homo sapiens, UniProt P15428); test: Inhibitory Activity Assay: To confirm whether the compounds according to the present disclosure have an effect of inhibiting 15-PGDH, the NADH, which appears at the wavelength of 340 nm, of Compounds 1 to 105 purified in (1) nm was measured by using fluorescence spectra photometer. That is, the cells were treated with a solution including 50 mM Tris-HCl (pH 7.5), 0.1 mM DTT, 0.25 mM (NAD+), 10 μg of purified 15-PGDH enzyme, 21 μM PGE2. and various concentrations (0.0001 μM to 64 μM) of the derivative compound according to the present disclosure. In this case, the total volume of the solution was 2 ml. Then, the absorbance of the reaction mixture was recorded at the wavelength of 340 nm. To measure the activity of the derivative compounds according to the present disclosure, which is an inhibitor of 15-PGDH, the average value of NADH absorbance at 340 nm at various concentrations was obtained from a standard curve. The results of the 15-PGDH inhibitory activity of the derivative compounds according to the present disclosure are shown in Tables 1 and 2 below.
T1 sequence (P15428 whole entry): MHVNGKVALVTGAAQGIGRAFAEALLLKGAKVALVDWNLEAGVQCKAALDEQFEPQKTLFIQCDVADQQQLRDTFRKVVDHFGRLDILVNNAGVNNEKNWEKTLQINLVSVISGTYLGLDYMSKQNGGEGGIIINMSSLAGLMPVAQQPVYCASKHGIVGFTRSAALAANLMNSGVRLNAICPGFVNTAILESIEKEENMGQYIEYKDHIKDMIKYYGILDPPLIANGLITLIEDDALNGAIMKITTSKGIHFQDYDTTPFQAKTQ

| IC50 [µM] | Compound |
| --- | --- |
| 0.431 | O=C1NC(=O)/C(=C/c2ccc(OC(=O)C3CCC3)cc2)S1 |
| 0.0508 | O=C(CCC1CCCC1)Oc1ccc(/C=C2\SC(=O)NC2=O)c(Cl)c1 |

| Compound | IC50 [µM] |
| --- | --- |
| O=C1NC(=O)/C(=C/c2ccc(OC(=O)c3ccccc3)cc2)S1 | 0.124 |
